Source: patent publication US10836791B2, “Compounds” (DSM IP ASSETS B.V., priority 2016, dated 2020)
Square brackets hold non-standard residues; d marks the D form. * marks the point of attachment. Palmitoyl = CCCCCCCCCCCCCCCC(=O)*; Octanoyl = CCCCCCCC(=O)*; Hexanoyl = CCCCCC(=O)*

Tested on: Normal human epidermal melanocytes, lightly pigmented
Experiment: Melanin inhibition in L-tyrosine-stimulated melanocytes (melanogenese assay)
Assay type: cell-based
Details: L-tyrosine 1 mM, 240 hours incubation, inhibition compared to stimulated control
Method: Melanocytes (Normal human epidermal melanocytes, lightly pigmented, 8th passage) were seeded in 24 well plates and cultured for 24 hours in culture medium (M254 supplemented with PMA free HMGS-2, Insulin 5 μg/ml, Penicilline 50 U/ml-Streptomycine 50 μg/ml Gentamycine 25 μg/ml) at 37° C., 5% CO2. The medium was then replaced by culture medium containing the test compounds or the reference (lipoic acid at 5 μg/ml) in presence of L-tyrosine (1 mM). The cells were then incubated for 240 hours with 2 renewals of culture medium containing the test compounds or the reference in presence of L-tyrosine after 96 and 168 hours of incubation. A non-stimulated and a stimulated control were performed in parallel. All experimental conditions were performed in n=3, except for control conditions in n=6. At the end of incubation, the culture supernatants were removed and the melanin was extracted by cell lysis using a 0.5 N NaOH solution. The optical density (OD) of each experimental point was measured at 405 nm and melanin quantity was calculated using melanin standards (standard curve from 0.39 to 100 μg/ml melanin). Results were expressed in μg/ml of melanin and in percentage of inhibition compared to stimulated control.

Palmitoyl-D-Trp-NLe-Leu-NH2 [Ref-3] was tested, and the “Melanin inhibition [%]” value (1 μM test compound) was 13%.

Octanoyl-[dW]-Arg-Leu-NH2 [Ref-4] was tested, and the “Melanin inhibition [%]” value (1 μM test compound) was 13%.

Hexanoyl-[dW]-Arg-Leu-NH2 [Ref-2] was tested, and the “Melanin inhibition [%]” value (1 μM test compound) was 18% and the “Melanin inhibition [%]” value (10 μM test compound) was 8%.

With Palmitoyl-[dW]-Met-Leu-NH2 [Ref-1] the “Melanin inhibition [%]” value (1 μM test compound) was 25% and the “Melanin inhibition [%]” value (10 μM test compound) was 43%.

H-[dW]-Arg-Leu-NH2 [Ref-5] was tested, and the “Melanin inhibition [%]” value (1 μM test compound) was −3% and the “Melanin inhibition [%]” value (10 μM test compound) was 14%.

For Palmitoyl-D-Trp-Arg-ATMPA-NH2 [Ref-6], the “Melanin inhibition [%]” value (1 μM test compound) was −3% and the “Melanin inhibition [%]” value (10 μM test compound) was −12%.
